Results reported in patent publication US20120214798A1, “Novel Ethanediamone Hepcidine Antagonists” (VIFOR (INTERNATIONAL) AG, priority 2009, published 2012).

Target: T1, human ferroportin (Homo sapiens, UniProt Q9NP59)
T1 construct: expressed in transfected cells
T1 sequence (Q9NP59 1-571): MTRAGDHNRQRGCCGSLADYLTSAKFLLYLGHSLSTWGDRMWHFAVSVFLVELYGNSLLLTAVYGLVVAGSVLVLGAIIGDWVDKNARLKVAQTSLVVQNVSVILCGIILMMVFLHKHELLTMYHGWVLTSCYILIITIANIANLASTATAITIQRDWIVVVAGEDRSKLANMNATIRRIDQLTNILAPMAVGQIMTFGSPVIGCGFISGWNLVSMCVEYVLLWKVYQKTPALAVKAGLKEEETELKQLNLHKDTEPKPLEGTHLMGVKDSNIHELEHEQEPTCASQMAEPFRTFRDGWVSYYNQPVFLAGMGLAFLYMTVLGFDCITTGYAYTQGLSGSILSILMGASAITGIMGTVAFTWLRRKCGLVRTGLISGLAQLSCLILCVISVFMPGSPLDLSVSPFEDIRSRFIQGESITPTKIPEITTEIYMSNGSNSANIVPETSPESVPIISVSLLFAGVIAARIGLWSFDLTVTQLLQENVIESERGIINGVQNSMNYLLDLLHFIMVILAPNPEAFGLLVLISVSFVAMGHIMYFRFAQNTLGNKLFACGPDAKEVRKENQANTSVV
Assay: Ferroportin internalization assay (inhibition of hepcidin-induced internalization of Fpn, MDCK-FPN-HaloTag cells)
Type: cell-based
Details: 100 nM hepcidin
Experimental: The hepcidin-antagonistic action of the ethanediamine compounds of the present invention was determined by means of the “ferroportin internalization assay” described in the following.
Organic compounds of low molecular weight which counteract the biological actions of hepcidin on its receptor, the iron exporter ferroportin (Fpn), were identified on the basis of their ability to inhibit hepcidin-induced internalization of Fpn in living cells. For this purpose, a stable cell line (Madin-Darby canine kidney, MDCK) was produced which constitutively expresses human ferroportin fused recombinantly at its C terminus with a fluorescent reporter protein (HaloTag®, Promega Corp.). The internalization of Fpn was monitored by labelling these cells with fluorescent ligands (HaloTag®-TMR, tetramethylrhodamine) which join covalently on to the HaloTag reporter gene fused with the Fpn. […] Optimized image analysis algorithms were used to ascertain the cell surface and to quantify the corresponding membrane fluorescence associated with the Fpn-HaloTag fusion protein. This assay allows a quantitative image-based analysis in order to quickly evaluate compounds which can block hepcidin-induced internalization of Fpn. This assay is a direct in vitro pendant of the in vivo action mechanism proposed for medicament candidates and is therefore suitable as an initial assay with a high throughput for identifying compounds which counteract the action of hepcidin on its receptor ferroportin.
• 7,500 cells per well (MDCK-FPN-HaloTag) were transinoculated in 50 μl of DMEM medium (Dulbeccos Modified Eagle Medium with 10% foetal bovine serum (FBS), which contained 1% penicillin, 1% streptomycin and 450 μg/ml of G-418) in microtitre plates with 384 wells (384 Cell carrier plates, Perkin Elmer, cat. no. 6007430), followed by incubation overnight at 37° C./5% CO2. • The volume of the medium was reduced to 10 μl, and 10 μl of 5 μM HaloTag-TMR ligands (Promega, cat. no. G 8251) were added in DMEM medium in order to stain the Fpn-HaloTag fusion protein. • 15 min incubation at 37° C./5% CO2 • The HaloTag-TMR ligand was removed and the cells were washed with fresh DMEM medium and the volume was reduced to 20 μl of DMEM medium. • 3 μl per well of a solution of the test compound (dissolved DMSO) were added ([…]). • 7 μl of […] hepcidin (Peptides International, cat. no. PLP-4392-s, 100 μM stock solution diluted in water in DMEM medium) were added per well up to a final hepcidin concentration of 100 nM. • The cells were incubated overnight at 37° C./5% CO2. • The cells were fixed by adding paraformaldehyde (PFA, Electron Microscopy Sciences, cat. no. 15710-S) directly to the cells up to a final concentration of 4%, followed by incubation at room temperature for 15-20 minutes. • The PFA solution was removed and the cells were washed with PBS (phosphate-buffered saline solution), in each case 30 μl remaining in the plate. • 20 μl of Draq5 (Biostatus, cat. no. DR 51000) were added up to a final concentration of 2.5 μM in order to stain the cell nuclei, and the plates were sealed with a foil plate seal. • The plates were analysed with the Opera Plate Imager (Opera Confocal Plate Imager, Perkin Elmer) with 7 images per well; 440 ms exposure time per image, […] focal point height.

| Compound | I [%] (median inhibition [%] at 10 μm substance conc.) |
| --- | --- |
| O=C(C1CCCO1)N1CCN(CC(NCc2ccccn2)c2ccc(F)cc2)CC1 (stereo not drawn) [Example 2, (4-{2-(4-Fluoro-phenyl)-2-[(pyridin-2-ylmethyl)-amino]-ethyl}-piperazin-1-yl)-(tetrahydro-furan-2-yl)-methanone] | <50 |
| Fc1ccc(C(CN2CCN(c3cnccn3)CC2)NCc2ccccn2)cc1 (stereo not drawn) [Example 1, [1-(4-Fluoro-phenyl)-2-(2,3,5,6-tetrahydro-[1,2′]bipyrazinyl-4-yl)-ethyl]-pyridin-2-ylmethyl-amine] | >50 |
| O=C(C1CCCO1)N1CCN(CC(NCc2ccccn2)c2ccccc2)CC1 (stereo not drawn) [Example 3, (4-{2-Phenyl-2-[(pyridin-2-ylmethyl)-amino]-ethyl}-piperazin-1-yl)-(tetrahydro-furan-2-yl)-methanone] | <50 |

More lines, now with the values ahead:

| I [%] (median inhibition [%] at 10 μm substance conc.) | Compound |
| --- | --- |
| <50 | COc1ccc(CNC(CN2CCC(N3CCCCC3)CC2)c2ccccc2)cc1 (stereo not drawn) [Example 6] |
| <50 | c1ccc(C(CN2CCC(N3CCCCC3)CC2)NCCN2CCOCC2)cc1 (stereo not drawn) [Example 5] |
| >50 | COCCN1CCN(C(CN2CCC(N3CCCCC3)CC2)c2ccccc2)CC1 (stereo not drawn) [Example 4] |
